Reference: ChEMBL document CHEMBL1201862, “PubChem BioAssay data set” (2004)
Calls of active or inactive are those of the source.

Legend:
[1] = inhibitors of intracellular T. cruzi replication, confirmation, NIH3T3 host cells, beta-gal luminescence (AID 2044); assay type: functional, cell-based;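 also: intracellular parasites grown in NIH/3T3 mouse fibroblasts as host cells; luminescent beta-galactosidase reporter signal from transgenic T. cruzi replicating inside host cells; inhibitors lower the luminescence signal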
[2] = cytotoxicity toward NIH3T3 fibroblasts, dose response, counter-screen, cell-based, ATP luminescence, mouse fibroblasts (AID 2010); assay type: functional;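 also: cells exposed to compound for about 90 hours before reading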
[3] = Luminescence Cell-Based Dose Retest to Confirm Inhibitors of Cancer Stem Cells. [Related pubchem assays (depositor defined):AID2717, AID2721]; assay type: functional; settings: Homo sapiens
INS1 = test: beta cell apoptosis inhibitors, cytokine rescue, dose response, luminescence, retest (AID 449756); assay type: functional, cell-based; settings: Rattus norvegicus;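 also: cell death triggered by IL-1 beta plus TNF-alpha plus IFN-gamma mixture; protective hits raise ATP signal compared with cytokine alone wells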
[4] = biological target: T1, Rac GTPase-activating protein 1 (Homo sapiens, UniProt Q9H0H5); test: MgcRacGAP GTPase-activating activity inhibitors, confirmation, biochemical, ADP Hunter fluorescence, primary and confirmatory (AID 624330); assay type: functional
T1 sequence (Q9H0H5 whole entry): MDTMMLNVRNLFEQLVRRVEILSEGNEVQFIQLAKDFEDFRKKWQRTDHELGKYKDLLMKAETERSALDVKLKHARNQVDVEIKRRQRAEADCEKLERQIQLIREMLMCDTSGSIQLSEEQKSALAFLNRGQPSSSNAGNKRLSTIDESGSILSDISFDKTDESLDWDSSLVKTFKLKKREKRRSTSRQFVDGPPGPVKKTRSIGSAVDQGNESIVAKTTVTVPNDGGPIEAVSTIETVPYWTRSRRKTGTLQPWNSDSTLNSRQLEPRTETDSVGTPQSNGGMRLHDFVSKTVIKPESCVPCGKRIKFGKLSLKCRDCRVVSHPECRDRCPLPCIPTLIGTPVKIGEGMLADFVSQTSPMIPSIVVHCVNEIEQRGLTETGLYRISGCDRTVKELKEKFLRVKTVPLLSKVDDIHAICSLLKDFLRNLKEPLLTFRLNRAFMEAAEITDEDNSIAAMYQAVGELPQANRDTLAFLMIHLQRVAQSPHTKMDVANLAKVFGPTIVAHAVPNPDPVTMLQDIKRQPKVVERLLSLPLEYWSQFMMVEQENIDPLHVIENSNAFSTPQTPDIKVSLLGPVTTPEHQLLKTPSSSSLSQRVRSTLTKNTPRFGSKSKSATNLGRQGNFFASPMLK

Cytochrome P450 2D6 = Cytochrome P450 2D6 (Homo sapiens, UniProt P10635);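 also: CYP2D6 member of a cytochrome P450 panel assay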
Chain of Cytochrome P450 2D6 (P10635 whole entry): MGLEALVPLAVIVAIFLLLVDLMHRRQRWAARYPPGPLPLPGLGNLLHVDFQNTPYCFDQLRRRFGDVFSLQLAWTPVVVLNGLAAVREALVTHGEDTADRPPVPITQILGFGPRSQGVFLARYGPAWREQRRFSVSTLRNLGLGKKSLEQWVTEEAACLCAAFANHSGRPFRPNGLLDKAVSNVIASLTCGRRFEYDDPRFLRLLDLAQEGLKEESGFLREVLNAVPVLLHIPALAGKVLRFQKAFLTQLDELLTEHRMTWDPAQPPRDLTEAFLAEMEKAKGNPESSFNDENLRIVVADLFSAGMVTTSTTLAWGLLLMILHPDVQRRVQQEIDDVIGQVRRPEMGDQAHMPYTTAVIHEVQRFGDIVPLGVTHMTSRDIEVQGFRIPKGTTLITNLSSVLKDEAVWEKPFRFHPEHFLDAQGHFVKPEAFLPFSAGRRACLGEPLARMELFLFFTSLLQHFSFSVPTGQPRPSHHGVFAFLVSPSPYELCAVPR

Cytochrome P450 3A4 = Cytochrome P450 3A4 (Homo sapiens, UniProt P08684);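 also: CYP3A4 tested as one member of a cytochrome P450 panel screen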
Chain of Cytochrome P450 3A4 (P08684 whole entry): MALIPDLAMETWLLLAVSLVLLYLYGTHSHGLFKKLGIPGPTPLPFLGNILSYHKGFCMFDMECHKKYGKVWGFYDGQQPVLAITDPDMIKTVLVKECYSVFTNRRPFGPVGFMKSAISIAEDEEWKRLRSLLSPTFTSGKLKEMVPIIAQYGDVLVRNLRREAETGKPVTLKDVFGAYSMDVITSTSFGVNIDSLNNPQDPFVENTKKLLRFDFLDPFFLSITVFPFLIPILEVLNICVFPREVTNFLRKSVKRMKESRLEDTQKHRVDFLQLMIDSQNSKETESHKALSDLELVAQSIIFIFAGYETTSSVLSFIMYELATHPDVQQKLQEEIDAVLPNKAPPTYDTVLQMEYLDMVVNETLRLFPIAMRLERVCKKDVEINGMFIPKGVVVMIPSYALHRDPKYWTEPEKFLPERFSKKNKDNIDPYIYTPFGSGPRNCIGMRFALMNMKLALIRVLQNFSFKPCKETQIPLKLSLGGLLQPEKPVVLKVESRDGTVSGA

Cytochrome P450 2C19 = Cytochrome P450 2C19 (Homo sapiens, UniProt P33261); test: Cytochrome panel assay with activity outcomes. Panel member name: p450-cyp2c19 Compounds with AC50 equal or less than 10 uM are considered active; assay type: functional
Chain of Cytochrome P450 2C19 (P33261 whole entry): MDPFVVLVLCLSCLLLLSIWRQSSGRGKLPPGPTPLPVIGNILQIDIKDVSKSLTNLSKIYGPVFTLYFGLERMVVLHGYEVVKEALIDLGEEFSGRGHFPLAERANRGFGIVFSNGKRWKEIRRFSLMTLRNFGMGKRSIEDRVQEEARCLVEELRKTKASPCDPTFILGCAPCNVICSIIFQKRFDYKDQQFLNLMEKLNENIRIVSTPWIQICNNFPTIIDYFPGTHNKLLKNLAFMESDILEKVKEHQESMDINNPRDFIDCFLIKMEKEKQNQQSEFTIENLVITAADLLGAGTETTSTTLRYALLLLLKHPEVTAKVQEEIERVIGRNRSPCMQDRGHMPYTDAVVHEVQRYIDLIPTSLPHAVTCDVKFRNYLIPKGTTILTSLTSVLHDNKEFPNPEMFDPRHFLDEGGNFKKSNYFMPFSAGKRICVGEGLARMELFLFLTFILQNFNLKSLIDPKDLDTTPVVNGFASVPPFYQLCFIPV

O=C(CCCCN1CCCCC1)c1ccc2c(c1)Cc1ccccc1-2
EC50 [1]: 1.9 µM (active)
EC50 [2]: 13.6 µM (active)

Cc1ccc(NC(=O)NCC2CCN(Cc3cccc(Cl)c3)CC2)cc1Cl
EC50 [1]: 1.03 µM (active)
EC50 [2]: > 60 µM (not active)
AC50 [3]: 8.54 µM (active)
AC50 (INS1): 12.8 µM (active)

CN(CC(=O)Nc1ccc(S(=O)(=O)N2CCCC2)cc1)Cc1ccc(Cl)cc1
EC50 [1]: 1.58 µM (active)
EC50 [2]: > 60 µM (not active)

O=C(NC(=S)NCc1cccnc1)c1cccc2ccccc12
EC50 [1]: 0.505 µM (active)
EC50 [2]: > 60 µM (not active)

CCCCCCOc1ccc(OC(=O)c2cccnc2)cc1
AC50 [3]: 3.33 µM (active)

COc1ccc(/C=N/NC(=O)c2cnccn2)cc1O
IC50 [4]: 85.6 µM (active)

CC[C@H]1CN2CCc3cc(OC)c(OC)cc3[C@H]2C[C@@H]1C[C@H]1NCCc2c1[nH]c1ccc(O)cc21
AC50 (Cytochrome P450 2D6): 3.98 µM (inconclusive)

COc1cccc(C(=O)N(C)c2nnc(-c3ccncc3)s2)c1
AC50 (Cytochrome P450 3A4): 6.31 µM (inconclusive)

O=C(O)Cc1c[nH]cn1 [IMIDAZOLE ACETIC ACID]
AC50 (Cytochrome P450 3A4): 31.6 µM (inconclusive)

COC(=O)c1ccc(C(=O)OCCCc2nc3cc(N)ccc3[nH]2)cc1
IC50 [4]: 110 µM (active)

COc1ccc(C(=O)c2c(C)c3ccccc3n2CC(O)CNC(C)C)cc1 (stereo unspecified)
AC50 (INS1): 30.1 µM (active)

Nc1ccc(N2CCN(Cc3ccccc3Cl)CC2)c(Cl)c1
AC50 [3]: 2.45 µM (active)

CCOc1cc(N2CCOCC2)c(OCC)cc1NC(=O)c1ccc(C)s1
IC50 [4]: 70.8 µM (active)

CN(C)c1ccc(-c2nccc(NCCN3CCOCC3)n2)cc1
AC50 (Cytochrome P450 2C19; read-out: AC50): 15.8 µM (inconclusive)
AC50 (Cytochrome P450 2D6): 39.8 µM (inconclusive)
AC50 (Cytochrome P450 3A4): 25.1 µM (inconclusive)

CCC(CO)Oc1cc(NCc2ccc(C)c(C)c2)c2ncn(C(C)C)c2c1 (stereo unspecified)
AC50 (INS1): 5.86 µM (active)

CN(C)c1ccc(/C=C(\C#N)C(=O)OCC(=O)N(C)C2CCS(=O)(=O)C2)cc1 (stereo unspecified)
AC50 (INS1): > 260 µM (inactive)

Cc1cc(Cl)cc2sc(S)nc12
IC50 [4]: 85.4 µM (active)

Cc1ccnc(Nc2nc(-c3ccc(O)cc3)cs2)c1
IC50 [4]: 105 µM (active)

COc1ncc2nc(-c3ccccc3)c(=O)n(C[C@H]3CCCO3)c2n1
AC50 (Cytochrome P450 3A4): 25.1 µM (inconclusive)

CCNS(=O)(=O)c1ccc(NC(=O)c2cc(C(F)(F)F)nn2C)cc1
AC50 (Cytochrome P450 3A4): 6.31 µM (inconclusive)

c1ccc(-c2cccc(N3CCC4(CCNCC4)CC3)c2)cc1
AC50 (Cytochrome P450 2D6): 39.8 µM (inconclusive)

COC(=O)c1[nH]c2ccc(Cl)cc2c1NC(=O)Oc1ccccc1
IC50 [4]: 19.8 µM (active)

COc1ccc(CN2CCCC(C(=O)N3CCCC3)C2)cc1 (stereo unspecified)
IC50 [4]: 109 µM (active)

Clc1ccc(Cl)c(OCCCCN2CCNCC2)c1
EC50 [1]: 3.42 µM (active)
EC50 [2]: 9.24 µM (active)
AC50 [3]: 2.41 µM (active)

O=S(=O)(c1cccc(-c2nnc(-c3ccc(Br)cc3)o2)c1)N1CCCCCC1
AC50 (Cytochrome P450 2C19; read-out: AC50): 11.2 µM (inconclusive)

NC(=O)CC(NC(=O)c1ccc(Br)cc1)c1ccc(N2CCCCCCC2)c([N+](=O)[O-])c1 (stereo unspecified)
AC50 [3]: 8.2 µM (active)

O=C(OCc1nc2ccccc2s1)c1ccc(Br)s1
AC50 (Cytochrome P450 3A4): 25.1 µM (inconclusive)

O=C(Nc1ncc(S(=O)(=O)c2ccc([N+](=O)[O-])cc2)s1)c1ccc2ccccc2c1
EC50 [1]: 0.128 µM (active)
EC50 [2]: > 60 µM (not active)
AC50 [3]: 2.11 µM (active)

CCCCCc1nc2c(C#N)c(-c3ccc(Cl)cc3)ccn2n1
AC50 (Cytochrome P450 3A4): 25.1 µM (inconclusive)

Cc1[nH]n(C(C)(C)C)c(=O)c1Sc1ccc(Cl)cc1
EC50 [1]: 16.3 µM (active)
EC50 [2]: > 60 µM (not active)

Cn1c([N+](=O)[O-])cnc1CN1CCN(CCO)CC1
AC50 (Cytochrome P450 2C19): inconclusive

COCCN1CN=C(Nc2nc3ccccc3s2)NC1
AC50 (Cytochrome P450 2D6): 11.2 µM (inconclusive)

C=C[C@]1(C)C[C@H](OC(=O)CO)[C@]2(C)C3C(=O)CC[C@]3(CC[C@H]2C)[C@H](C)[C@H]1O (stereo partly specified)
AC50 (Cytochrome P450 3A4): 3.16 µM (inconclusive)

O=C(COc1ccc(Br)cc1Cl)NC1CCN(Cc2ccccc2)CC1
EC50 [1]: 0.165 µM (active)
EC50 [2]: > 60 µM (not active)

O=C(CN1CCN(c2ccc(O)cc2)CC1)Nc1ccc(SC(F)F)cc1
AC50 [3]: 6.49 µM (active)

Cc1ccc(/C=N/NC(=O)CNC(=O)COc2ccccc2)o1
AC50 [3]: > 195 µM (inactive)

COc1cc(Br)c(/C=C/c2ccc3cccc(O)c3n2)cc1OC
EC50 [1]: 0.831 µM (active)
EC50 [2]: > 60 µM (not active)

CCC(=O)Nc1nc(C)c(-c2csc(Nc3cccc(O)c3)n2)s1
AC50 [3]: 0.188 µM (active)

CCC(CO)Oc1cc(NCc2ccc(Cl)cc2Cl)c2ncn(C(C)C)c2c1 (stereo unspecified)
AC50 [3]: 8.14 µM (active)

O=C(Cn1cnc([N+](=O)[O-])n1)N/N=C/c1ccc2ccccc2c1
EC50 [1]: 0.333 µM (active)
EC50 [2]: > 60 µM (not active)

COc1ccc(CN2CCN(C(=O)C3CCC(CNS(=O)(=O)c4ccc(C)cc4)CC3)CC2)c(OC)c1OC (stereo unspecified)
EC50 [1]: 0.404 µM (active)
EC50 [2]: > 60 µM (not active)

COc1ccccc1N1CCNCC1
AC50 (Cytochrome P450 2C19): inconclusive

Cc1nc2cnc(N3CCNCC3)nc2n(Cc2cccs2)c1=O
AC50 (Cytochrome P450 2D6): 12.6 µM (inconclusive)

COc1cc(/C=C/C(=O)OCC(=O)NC2CCS(=O)(=O)C2)ccc1O (stereo unspecified)
IC50 [4]: 47.1 µM (active)

Cc1ccc(OCC(O)Cn2c3ccccc3c3ccccc32)cc1 (stereo unspecified)
AC50 [3]: 4.84 µM (active)

CCc1ccc(-c2csc(NC(=O)C3CCCO3)c2C(=O)OC(C)C)cc1 (stereo unspecified)
AC50 (Cytochrome P450 3A4): 28.2 µM (inconclusive)

CN(C)C(=O)c1ccc(-c2ccc3ncnc(Nc4ccc(F)cc4)c3c2)cc1
AC50 (Cytochrome P450 2C19; read-out: AC50): 25.1 µM (inconclusive)

Oc1ccccc1CNCc1ccccc1O
AC50 (Cytochrome P450 2D6): 3.16 µM (inconclusive)

CC(=O)c1ccc(NC(=O)C(Cc2ccccc2)NC(=O)c2ccco2)cc1 (stereo unspecified)
AC50 (Cytochrome P450 3A4): 28.2 µM (inconclusive)

Cn1nnnc1SCCNCc1cccc2ccccc12
EC50 [1]: > 60 µM (not active)
EC50 [2]: > 60 µM (not active)

C/C(Cn1cnc([N+](=O)[O-])n1)=N/NC(=O)COc1ccccc1Cl
EC50 [1]: 0.154 µM (active)
EC50 [2]: > 60 µM (not active)

CN(C)CCCn1c2c(c(SCC(=O)Nc3cccc4ccccc34)nc1=O)CCC2
EC50 [1]: 2.04 µM (active)
EC50 [2]: > 60 µM (not active)

COc1cccc(NC(=O)Nc2ccc(C)c(Cl)c2)c1
EC50 [1]: 2.41 µM (active)
EC50 [2]: > 30 µM (not active)

COc1cc(C(C)n2nnc3ccccc32)ccc1O (stereo unspecified)
IC50 [4]: 108 µM (active)

CCN(CC)c1ccc(NC(=O)COc2ccc(-n3cnnn3)cc2)cc1
IC50 [4]: 63 µM (active)

CNC(=S)N(Cc1cccs1)Cc1cc2cc(OC)c(OC)cc2nc1O
AC50 (INS1): 99.3 µM (active)

O=C(NCCCN1CCCC1=O)c1ccc([N+](=O)[O-])s1
EC50 [1]: 0.534 µM (active)
EC50 [2]: > 30 µM (not active)

O=C1CCCC2=C1C(c1ccc(OS(=O)(=O)c3ccc(Cl)cc3)cc1)C1=C(CCCC1=O)O2
AC50 (Cytochrome P450 2D6): 12.6 µM (inconclusive)

CC(=O)NCCNc1nc(-c2ccc3c(c2)OCO3)nc2ccccc12
AC50 (Cytochrome P450 2C19; read-out: AC50): 39.8 µM (inconclusive)

COc1ccc(S(=O)(=O)N2CCC(N3CCCCC3)CC2)cc1
AC50 (Cytochrome P450 2C19; read-out: AC50): 39.8 µM (inconclusive)

COc1cc(C)ccc1OCCOc1cc(C)ccc1Cl
AC50 (Cytochrome P450 2C19; read-out: AC50): 5.62 µM (inconclusive)

CN(Cc1ccccc1)Cc1c(O)ccc2ccccc12
IC50 [4]: 89.3 µM (active)

C=CCc1cccc(/C=N/NC(=O)c2ccccc2OC)c1O
EC50 [1]: 2.2 µM (active)
EC50 [2]: > 60 µM (not active)
AC50 (INS1): 3.06 µM (active)

CN(C(=O)COc1cccc(Br)c1)C1CCS(=O)(=O)C1 (stereo unspecified)
AC50 (Cytochrome P450 2C19; read-out: AC50): 22.4 µM (inconclusive)

O=C(NC1(Cc2ccccc2)CCN(CCCc2ccccc2)C1=O)c1ccccc1 (stereo unspecified)
AC50 (INS1): 2.75 µM (active)

CCC1CCCCN1Cc1cc(OC)c(O)c([N+](=O)[O-])c1 (stereo unspecified)
AC50 (Cytochrome P450 2D6): 14.1 µM (inconclusive)

O=c1c2ccccc2[nH]c(=S)n1CCCN1CCC(Cc2ccccc2)CC1
EC50 [1]: 0.161 µM (active)
EC50 [2]: > 60 µM (not active)

COCC(=O)N1CCC2(CCCN(c3cccc(-c4ccccc4)c3)C2)CC1
AC50 (Cytochrome P450 2D6): 39.8 µM (inconclusive)
AC50 (Cytochrome P450 3A4): 12.6 µM (inconclusive)

CC(=O)c1ccc(OCc2cc(C(=O)N3CCCCC3c3cccnc3)no2)cc1 (stereo unspecified)
AC50 (INS1): 14.3 µM (active)

COCCCn1c(=N)c(C(N)=S)cc2c(=O)n3cccc(C)c3nc21
EC50 [1]: 1.34 µM (active)
EC50 [2]: > 60 µM (not active)

NC1=NC(Nc2ccc(F)cc2F)=NC2(CCCCC2)N1
AC50 (Cytochrome P450 2C19; read-out: AC50): 3.16 µM (inconclusive)

CSc1nc2ccccc2cc1/C=C(\C#N)c1ccc(Cl)cc1Cl
AC50 (Cytochrome P450 2D6): 1.58 µM (inconclusive)

c1ccc(Nc2cccc3c(Nc4ccccc4)cccc23)cc1
EC50 [1]: 1.14 µM (active)
EC50 [2]: > 60 µM (not active)
